The source of these data is patent US9045517B2, “Glycosylated aminocoumarins and methods of preparing and uses of same” (University College London, priority 2010, dated 2015).

In data set [1] the test system is MiaPaCa2 (pancreatic cancer). Kind of data set: MTT anti-proliferative assay, MiaPaCa2. The format is cell-based. As to conditions: Homo sapiens, MIA PaCa-2, MiaPaCa2 cells, 24 h continuous exposure. As for the experimental part:
(§1) The cell number is estimated colorimetrically based on the transformation of the yellow MTT reagent (3-(4,5-Dimethylthiazol-2-yl)-2,5-diphenyltetrazolium bromide) to a purple formazan dye by mitochondrial enzymes.
(§2) Human cell lines derived from ovarian cancer (A2780, ECACC 93112519), lung cancer (A549, ATCC CCL-185), breast cancer (MCF7, ATCC HTB-22), pancreatic cancer (MiaPaCa2, ATCC CRL-1420) and brain cancer (U87MG, ATCC HTB-14), were obtained from the European Collection of Cell Cultures (ECACC, Salisbury, UK). The A2780, A549, MCF7 and MiaPaCa2 cells were grown in Dulbecco's Modified Eagle Medium (DMEM) supplemented with 10% fetal bovine serum (Biosera, UK), 1% L-glutamine and 1% non-essential aminoacids (Gibco, Invitrogen, USA). U87MG cells were grown in Minimal essential medium supplemented with 10% fetal bovine serum (Biosera, UK), 1% L-glutamine, 1% non-essential aminoacids and 1% Sodium piruvate (Gibco, Invitrogen, USA). Cells were grown in a 5% CO2, 95% humidity incubator. […] The compounds were dissolved in methanol at a maximum concentration of 20 mM, and serial decimal dilutions were prepared in methanol. For each compound and each concentration, 5 μl of the methanol solution were added over the cells, growing in 100 μl of cell culture medium per well (n=6). After 24 h of continuous drug exposure, the growth inhibition was determined using the MTT assay (Lancaster Synthesis Ltd, UK). The amount of dye was quantified spectrophotometrically as absorbance at λ=570 nm (ELx808, Bio-Tek Instruments, Inc.). The IC50 values were calculated by a dose-response analysis using the Origin 6.0® software.

Another data set concerns A549 (lung cancer). Kind of data set: MTT anti-proliferative assay, A549. It counts as cell-based. The note with it: Homo sapiens, A549 cells, 24 h continuous exposure. Here is the method:
as §1, §2

For the next data set, the system named is U87MG (brain cancer). Kind of data set: MTT anti-proliferative assay, U87MG. It counts as cell-based. The note with it: Homo sapiens, U-87 MG, U87MG cells, 24 h continuous exposure. As for the experimental part:
as §1, §2

The nature of data set [2]: Toxicity relative to precursor (no method given). As to conditions: versus novobiocin.
The target in a further data set is T1, DNA Gyrase (Escherichia coli, UniProt P0AES6).
T1 construct: purchased
In words: DNA gyrase supercoiling assay (relaxed pBR322, agarose gel). The format is biochemical. The note with it: DNA Gyrase 1U, relaxed pBR322, 37 C, 1 hr. As for the experimental part:
DNA Gyrase (1U) is incubated with relaxed pBR322 (0.5 μg) in a reaction volume of 30 μL at 37 °C for 1 hr in TRIS-HCl (35 mM, pH 7.5), KCl (24 Mm), MgCl2 (4 mM), DTT (2 mM), spermidine (1.8 mM), ATP (1 mM), glycerol (6.5%, w/v), albumin (0.1 mg/mL).
After incubation the mixture was deproteinized with equal volumes of chloroformisoamyl alcohol (24:1) and the end point was determined by separating relaxed and supertwisted plasmid pBR322DNA by agarose gel electrophoresis (0.8% agarose with TBE buffer), running without Ethidium Bromide. After the run the gel is soaked, in tank buffer containing Ethidium Bromide, for 1 and half hours.

In another data set the test system is A2780 (ovarian cancer). Kind of data set: MTT anti-proliferative assay, A2780. The format is cell-based. As to conditions: Homo sapiens, A2780 cells, 24 h continuous exposure. As for the experimental part: as §1, §2
A further data set concerns MCF7 (breast cancer). In words: MTT anti-proliferative assay, MCF7. It counts as cell-based. The note with it: Homo sapiens, MCF7 cells, 24 h continuous exposure. As for the experimental part:
as §1, §2

The next data set deals with Escherichia coli. Kind of data set: MIC by micro-broth dilution against Escherichia coli, with or without PEI. It counts as cell-based. Here is the method:
Microtitre plates were incubated aerobically at 37° C. and read after one and four days. The concentration range tested was 128 to 0.5 μg/ml. A cell permeabilising agent, polyethylenimine (PEI) was used to assess the influence of cell membrane (and associated structures) as a barrier to novobiocin entry into the cell. Isopropyl β-D-1-thiogalactopyranoside (100 μM) was used to induce β-glycosidase and β-galactosidase expression from plasmids pSsβG and pBCSK, respectively. These enzymes can release the native drugs from the conjugates.

Each structure is given as a SMILES string. pIC50: −log10 of the molar value. ≈ marks a conversion by molar mass, not a printed value.

Turning to `CO[C@@H]1C(OC(N)=O)C(O)[C@H](Oc2ccc3c(O[C@@H]4OC(CO)[C@@H](O)C(O)C4O)c(NC(=O)c4ccc(O)c(CC=C(C)C)c4)c(=O)oc3c2C)OC1(C)C` (stereo partly drawn) [Glucosyl_Novobiocin, β-4′-O-glucosyl Novobiocin], the pIC50 in data set [1] is 5.00; in the data set with A549 (lung cancer) it was 4.22; in the data set with U87MG (brain cancer) it was 4.70; in the data set on A2780 (ovarian cancer) it was 3.89; in the data set on MCF7 (breast cancer), 5.00. For the same compound, the “toxicity compared with precursor” value in data set [2] is reported as “less toxic than its precursor”. Besides, at DNA Gyrase, the “MIC in DNA gyrase assay” value is 3 µM (≈ 2.32 µg/mL).

As to `CO[C@@H]1C(OC(N)=O)C(O)[C@H](Oc2ccc3c(O[C@@H]4O[C@H](CO)[C@H](O)[C@H](O)[C@H]4O)c(NC(=O)c4ccc(O)c(CC=C(C)C)c4)c(=O)oc3c2C)OC1(C)C` (some centres unmarked) [Galactosyl_Novobiocin], the pIC50 was 4.52 in data set [1]; 4.00 in the data set with A549 (lung cancer); 4.52 with U87MG (brain cancer); 4.00 with A2780 (ovarian cancer); 4.40 in the data set with MCF7 (breast cancer). The “re-growth on prolonged incubation at concentrations above the MIC” value with Escherichia coli (prolonged incubation up to 4 days) is given as “did not lead to re-growth”. On DNA Gyrase, the “MIC in DNA gyrase assay” value was determined as 3 µM (≈ 2.32 µg/mL).

In the case of `CO[C@@H]1[C@@H](OC(N)=O)[C@@H](O)[C@H](Oc2ccc3c(O)c(NC(=O)c4ccc(O)c(CC=C(C)C)c4)c(=O)oc3c2C)OC1(C)C` [Novobiocin, reference compound], the negative-log IC50 (pIC50) is 3.49 in data set [1]; below 3.00 with A549 (lung cancer); 3.24 with U87MG (brain cancer); 3.72 in the data set with A2780 (ovarian cancer); below 3.00 with MCF7 (breast cancer). For the same compound, the “increased activity against Escherichia coli in the presence of PEI” value in the data set on Escherichia coli (with polyethylenimine (PEI), independent of β-galactosidase) was 16-32 fold.
